# According to the Deep4Chem optical property database:
# Assay: photoluminescence quantum yield (fraction); solvent given as SMILES
structure (smiles),measurement,setting,value
COc1cc2c(cc1OC)C1=C[C@H](c3ccccc3)C3(C(C#N)=C(C#N)N1CC2)c1cc(Br)ccc1-c1ccc(Br)cc13,photoluminescence quantum yield,in ClCCl,0.00059
CCCCCCC1(CCCCCC)c2ccccc2-c2ccc(-c3ccc(-c4cc(-c5ccccn5)nc(-c5ccccn5)c4)cc3)cc21,photoluminescence quantum yield,in ClCCl,0.92
F[B-]1(F)OC(c2ccc3ccccc3c2)=CC(c2ccc3ccccc3c2)=[O+]1,photoluminescence quantum yield,in CC#N,0.7
same,photoluminescence quantum yield,in ClC(Cl)(Cl)Cl,0.9
F[B-]1(F)n2c(NCc3ccccc3)ccc2C(c2c(Cl)cccc2Cl)=C2C=CC(NCc3ccccc3)=[N+]21,photoluminescence quantum yield,in CC#N,0.42
same,photoluminescence quantum yield,in CCCCCC,0.55
same,photoluminescence quantum yield,in CCOC(C)=O,0.44
same,photoluminescence quantum yield,in CO,0.5
same,photoluminescence quantum yield,in ClCCl,0.52
CCC1(CC)c2cc(Br)ccc2-c2c1c1c(c3c2C(CC)(CC)c2cc(-c4cccs4)ccc2-3)C(CC)(CC)c2cc(Br)ccc2-1,photoluminescence quantum yield,in C1CCOC1,0.32
COc1ccc(-c2ccc(C(=O)NC(C)(C)C)c3c2ccc2c4ccccc4c4ccccc4c23)cc1,photoluminescence quantum yield,in ClCCl,0.21
COc1ccc2c(C=C(C#N)C#N)cc3ccc4cc(C=C(C#N)C#N)c5ccc(OC)cc5c4c3c2c1,photoluminescence quantum yield,in ClC(Cl)Cl,0.23
F[B-]1(F)n2ccnc2-c2cccc[n+]21,photoluminescence quantum yield,in C1CCCCC1,0.03
same,photoluminescence quantum yield,in C1CCOC1,0.44
same,photoluminescence quantum yield,in C1COCCO1,0.28
same,photoluminescence quantum yield,in CC#N,0.28
same,photoluminescence quantum yield,in CCCCCC,0.03
same,photoluminescence quantum yield,in CO,0.03
same,photoluminescence quantum yield,in ClC(Cl)Cl,0.14
C1=C2c3cc4ccccc4cc3C3=[N+]2[B-]2(Oc4ccccc43)Oc3ccccc3-c3c4cc5ccccc5cc4c1n32 (stereo not given),photoluminescence quantum yield,in C1CCOC1,0.013
COc1ccc(-c2nc(-c3ccc(C)cc3)c3ccccn23)cc1,photoluminescence quantum yield,in ClC(Cl)Cl,0.13
CN(C)c1ccc(C=C/C=C/C=C/c2ccc(C#N)cc2)cc1,photoluminescence quantum yield,in C1CCOC1,0.112
same,photoluminescence quantum yield,in CC#N,0.261
same,photoluminescence quantum yield,in CCCC#N,0.142
same,photoluminescence quantum yield,in CCCCCC,0.072
same,photoluminescence quantum yield,in CCCCOCCCC,0.081
same,photoluminescence quantum yield,in CCO,0.211
same,photoluminescence quantum yield,in CCOCC,0.092
CCC1(CC)c2cc(C=C(C#N)C#N)ccc2-c2ccc(N(C)C)cc21,photoluminescence quantum yield,in C1CCCCC1,0.04
same,photoluminescence quantum yield,in CC#N,0.26
same,photoluminescence quantum yield,in CCO,0.18
same,photoluminescence quantum yield,in CCOCC,0.39
same,photoluminescence quantum yield,in CS(C)=O,0.24
same,photoluminescence quantum yield,in ClCCl,0.62
same,photoluminescence quantum yield,in c1ccccc1,0.22
COc1ccccc1-c1cc2c(o1)=CC1=Cc3cc4oc(-c5ccccc5OC)cc4n3[B-](F)(F)[N+]=21,photoluminescence quantum yield,in ClC(Cl)Cl,0.91
CC1=CC(C)=[N+]2C1=C(c1ccc(I)cc1)c1c(C)cc(C)n1[B-]2(Oc1ccccc1)Oc1ccccc1,photoluminescence quantum yield,in ClC(Cl)Cl,0.06
CC(C)(C)c1ccc(C2=C(c3ccc(-n4c5ccc(C(C)(C)C)cc5c5cc(C(C)(C)C)ccc54)cc3)S(=O)(=O)c3c2sc(-c2ccc(-n4c5ccc(C(C)(C)C)cc5c5cc(C(C)(C)C)ccc54)cc2)c3-c2ccc(C(C)(C)C)cc2)cc1,photoluminescence quantum yield,in C1CCOC1,0.164
Cc1c2c(c(C)c3ccccc13)-c1c-2ccc2nc3ccccc3nc12,photoluminescence quantum yield,in ClC(Cl)Cl,0.02
Cc1ccc(C2=C3C=C(I)C=[N+]3[B-](F)(F)n3cccc32)cc1,photoluminescence quantum yield,in C1CCCCC1,0.034
same,photoluminescence quantum yield,in CC#N,0.008
same,photoluminescence quantum yield,in CCO,0.01
same,photoluminescence quantum yield,in CCOC(C)=O,0.011
same,photoluminescence quantum yield,in CO,0.008
same,photoluminescence quantum yield,in OCC(F)(F)F,0.009
COC(=O)/C=C/c1ccc2ccc3cccc4ccc1c2c34,photoluminescence quantum yield,in C1CCOC1,0.73
same,photoluminescence quantum yield,in C1COCCO1,0.55
same,photoluminescence quantum yield,in CC#N,0.46
same,photoluminescence quantum yield,in CC(C)=O,0.51
same,photoluminescence quantum yield,in CCCCCC,0.46
same,photoluminescence quantum yield,in CCOC(C)=O,0.57
same,photoluminescence quantum yield,in CO,0.26
same,photoluminescence quantum yield,in Cc1ccccc1,0.47
COC(=O)c1ccc(Oc2ccc3c4c(cccc24)C(=O)N(c2c(C(C)C)cccc2C(C)C)C3=O)cc1,photoluminescence quantum yield,in ClCCl,0.55
CN(C)c1ccc(C2=Nc3scc(-c4ccc(C#N)cc4)[n+]3[B-](F)(F)O2)cc1,photoluminescence quantum yield,in C1CCOC1,0.23
same,photoluminescence quantum yield,in CC#N,0.02
same,photoluminescence quantum yield,in Cc1ccccc1,0.62
same,photoluminescence quantum yield,in ClCCl,0.61
C1=C2C3=C(C4=[N+]2[B-]2(Oc5ccccc54)Oc4ccccc4-c4c5c(c1n42)C1CCC5CC1)C1CCC3CC1 (stereo not given),photoluminescence quantum yield,in ClCCl,0.99
CC1(C)c2ccccc2N(c2ccc(-c3nc4cc(C#N)c(C#N)cc4nc3-c3ccc(N4c5ccccc5C(C)(C)c5ccccc54)cc3)cc2)c2ccccc21,photoluminescence quantum yield,in Cc1ccccc1,0.91
O=C(O)COc1cccc(OCC(=O)O)c1-c1c2ccc(=[N+]3CCCCC3)cc-2oc2cc(N3CCCCC3)ccc12,photoluminescence quantum yield,in CCO,0.49
same,photoluminescence quantum yield,in O,0.13
CC(=O)[B-]1(C(C)=O)OC(c2ccccc2)=CC(c2ccc3ccccc3c2)=[O+]1,photoluminescence quantum yield,in CC#N,0.52
same,photoluminescence quantum yield,in ClC(Cl)(Cl)Cl,0.58
CC(C)(C)c1ccc(C2=c3c(c4ccc(C(C)(C)C)cc4c4cc(C(C)(C)C)ccc34)=[N+]3C2=C(c2ccccc2)c2c(-c4ccc(C(C)(C)C)cc4)c4c5ccc(C(C)(C)C)cc5c5cc(C(C)(C)C)ccc5c4n2[B-]3(F)F)cc1,photoluminescence quantum yield,in C1CCCCC1,0.44
same,photoluminescence quantum yield,in C1CCOC1,0.45
same,photoluminescence quantum yield,in CC#N,0.27
same,photoluminescence quantum yield,in Cc1ccccc1,0.46
same,photoluminescence quantum yield,in ClCCl,0.45
CCC(CC)n1c2ccccc2c2cc3c(cc21)c1ccccc1n3C(CC)CC,photoluminescence quantum yield,in ClC(Cl)Cl,0.16
COc1ccc(C2=C/C(=C\c3ccc(C#N)cc3)C(=O)N2)cc1OC,photoluminescence quantum yield,in C1COCCO1,0.188
c1ccc2[nH]c(-c3ccc(-c4ccc(-c5ccc(-c6nc7ccccc7[nH]6)cc5)cc4)cc3)nc2c1,photoluminescence quantum yield,in CN(C)C=O,0.88
Cc1cc(=O)oc2cc3c4ccc(C(C)(C)C)cc4c4cc(C(C)(C)C)ccc4c3cc12,photoluminescence quantum yield,in ClC(Cl)Cl,0.14
FC(F)(F)c1ccc2oc3nc4oc5ccc(N6c7ccccc7Oc7ccccc76)cc5c4cc3c2c1,photoluminescence quantum yield,in ClC(Cl)Cl,0.055
CCCCCCCCOc1ccc(C#Cc2ccc3oc4ccccc4c3c2)c(OCCCCCCCC)c1,photoluminescence quantum yield,in ClCCl,0.45
c1ccc(-c2cc3c(oc4ccccc43)c(-c3ccccc3)[o+]2)cc1,photoluminescence quantum yield,in CC#N,0.18
same,photoluminescence quantum yield,in ClCCCl,0.1
c1ccc(-c2nc3ccccc3nc2-c2ccc(-n3c4ccccc4c4ccccc43)cc2)cc1,photoluminescence quantum yield,in Cc1ccccc1,0.32
CCN(CC)c1ccc2c(c1)oc(=O)c1c(C)nc3c(c(-c4ccccc4)nn3-c3ccccc3)c12,photoluminescence quantum yield,in C1CCCCC1,0.635
same,photoluminescence quantum yield,in CCOC(C)=O,0.634
same,photoluminescence quantum yield,in CN(C)C=O,0.51
same,photoluminescence quantum yield,in CO,0.396
same,photoluminescence quantum yield,in ClCCl,0.653
O=S(=O)(c1cccc(N2c3ccccc3Oc3ccccc32)c1)c1cccc(N2c3ccccc3Oc3ccccc32)c1,photoluminescence quantum yield,in CCCCC(CC)n1c2ccc(-n3c4ccccc4c4ccccc43)cc2c2cc(-n3c4ccccc4c4ccccc43)ccc21,0.208
same,photoluminescence quantum yield,in c1cc(-n2c3ccccc3c3ccccc32)cc(-n2c3ccccc3c3ccccc32)c1,0.321
CCN(CC)c1ccc(-c2nc3c4ccccc4n(C)c3nc2-c2ccc(B(c3c(C)cc(C)cc3C)c3c(C)cc(C)cc3C)cc2)cc1,photoluminescence quantum yield,in C1CCOC1,0.27
CC(C)(C)c1ccc(C#Cc2cc(C#Cc3ccc(C(C)(C)C)cc3)c(C#Cc3ccc(C(C)(C)C)cc3)c(C#Cc3ccc(C(C)(C)C)cc3)c2C#Cc2ccc(C(C)(C)C)cc2)cc1,photoluminescence quantum yield,in ClCCl,0.41
O=C1c2cc3ccccc3cc2C2=Nc3ccc4ccccc4[n+]3[B-](F)(F)N12,photoluminescence quantum yield,in ClCCl,0.93
COc1ccc(C2=[N+]3C(=Cc4c5ccc(OC)cc5c(-c5ccc(OC)cc5)n4[B-]3(F)F)c3ccc(OC)cc32)cc1,photoluminescence quantum yield,in ClCCl,0.49
CCCCCCC(CCCCCC)N1C(=O)c2cccc3c(-c4ccc([Si](C)(C)C)cc4)ccc(c23)C1=O,photoluminescence quantum yield,in CCCCCC,0.14
same,photoluminescence quantum yield,in CCCCCCCCCCCCCC,0.18
same,photoluminescence quantum yield,in CCCCCCCCCCCO,0.85
same,photoluminescence quantum yield,in CCCCO,0.89
same,photoluminescence quantum yield,in CN(C)C=O,0.64
same,photoluminescence quantum yield,in Cc1ccccc1,0.51
same,photoluminescence quantum yield,in ClC(Cl)Cl,0.79
O=Cc1cc2c(cc3ccc4cccc5ccc2c3c45)[nH]1,photoluminescence quantum yield,in CCOC(C)=O,0.61
CC(=O)c1nc(-c2ccc(N(C)C)cc2)oc1C,photoluminescence quantum yield,in CC#N,0.029
same,photoluminescence quantum yield,in CCO,0.019
same,photoluminescence quantum yield,in CCOC(C)=O,0.03
same,photoluminescence quantum yield,in CCOCC,0.016
same,photoluminescence quantum yield,in ClCCl,0.044
CCn1c2ccccc2c2cc(C#Cc3cc(C#Cc4ccc5c(c4)c4ccccc4n5CC)nc(SC)n3)ccc21,photoluminescence quantum yield,in C1CCOC1,0.61
same,photoluminescence quantum yield,in CCOC(C)=O,0.62
same,photoluminescence quantum yield,in CN(C)C=O,0.56
same,photoluminescence quantum yield,in Cc1ccccc1,0.53
same,photoluminescence quantum yield,in ClCCl,0.64
COc1ccc(-c2cc3c(s2)c(-c2ccccc2)cc(=O)n3C)cc1,photoluminescence quantum yield,in CC#N,0.42
same,photoluminescence quantum yield,in ClCCl,0.46
CNc1cccc2c1C(=O)c1ccccc1-2,photoluminescence quantum yield,in C1CCCCC1,0.042
same,photoluminescence quantum yield,in CC#N,0.065
same,photoluminescence quantum yield,in CCO,0.064
same,photoluminescence quantum yield,in c1ccccc1,0.065
Cc1ccc(C#Cc2ccc3ccc4cccc5ccc2c3c45)cc1,photoluminescence quantum yield,in CCCCCC,0.29
same,photoluminescence quantum yield,in CCO,0.3
same,photoluminescence quantum yield,in CCOC(C)=O,0.29
same,photoluminescence quantum yield,in ClCCl,0.38
c1ccc(-c2nn(-c3ccccc3)c3nc4ccc(N(c5ccccc5)c5cccc6ccccc56)cc4cc23)cc1,photoluminescence quantum yield,in C1CCCCC1,0.57
same,photoluminescence quantum yield,in C1CCOC1,0.57
same,photoluminescence quantum yield,in CC#N,0.41
same,photoluminescence quantum yield,in CC(C)=O,0.53
same,photoluminescence quantum yield,in CCCCCl,0.56
same,photoluminescence quantum yield,in CCCCOCCCC,0.56
same,photoluminescence quantum yield,in CN(C)C=O,0.47
CC/[NH+]=c1\cc2oc3cc(NC)c(C)cc3c(-c3ccccc3C(=O)OCC)c-2cc1C,photoluminescence quantum yield,in CCO,0.94
same,photoluminescence quantum yield,in O,0.95
CCCCc1cc(CCCC)c2ccc3c(CCCC)cc(CCCC)c4ccc1c2c43,photoluminescence quantum yield,in CCCCCC,0.55
same,photoluminescence quantum yield,in CO,0.67
same,photoluminescence quantum yield,in ClCCl,0.61
c1ccc(-c2nc(-c3ccccn3)[se]c2N(c2ccccc2)c2ccccc2)cc1,photoluminescence quantum yield,in ClC(Cl)Cl,0.113
CN(CCO)c1ccc(/N=N/c2ccc([N+](=O)[O-])cc2)cc1,photoluminescence quantum yield,in CO,0.0028
same,photoluminescence quantum yield,in OCC(O)CO,0.0011
same,photoluminescence quantum yield,in OCCO,0.0014
same,photoluminescence quantum yield,in Oc1ccccc1,4.3e-05
Cc1cn2cc(-c3ccc([N+](=O)[O-])cc3)[n-][n+]2c1,photoluminescence quantum yield,in ClCCl,0.022
